The test concerns FOXP3. As to the kind of experiment: Acetylation of chromatin-bound FOXP3 in HA-FOXP3a/3b transfected Jurkat T cells (immunoblot). Format: cell-based, human. Conditions: 1 ng TGF-β per million cells; serum-starved Jurkat T cells; between 2 and 4 hours after exposure; anti-acetyl lys immunoblot; FIG. 10B. How it is done: FIG. 10B is an image of an immunoblot of untreated and TGF-β treated, human HA-FOXP3a/3b transfected Jurkat T cells. The transfected cells were stimulated with or without 1 ng TGF-β per million cells for indicated time periods. Equal amounts of proteins from chromatin rich fractions were separated by SDS-PAGE, transferred to nitrocellulose, and immunoblotted with anti-acetyl lys specific antibody (Ac-K-103, Santa Cruz) followed by reprobing with anti-HA-HRP conjugated antibody. Acetylated FOXP3a and FOXP3b proteins are marked.
The effect of TGF-β on the acetylation of FOXP3 was examined. Serum-starved human HA-FOXP3a/3b transfected Jurkat T cells were stimulated with or without 1 ng TGF-β per million cells for indicated time periods. Equal amounts of proteins from chromatin rich fractions were separated by SDS-PAGE, transferred to nitrocellulose, and immunoblotted with anti-acetyl lys specific antibody (Ac-K-103, Santa Cruz) followed by reprobing with anti-HA-HRP conjugated antibody (FIG. 9B).
(A western blot detects proteins with antibodies after separation by electrophoresis.)

With Transforming Growth Factor-β [TGF-β], the “chromatin-bound acetylated FOXP3” value is listed as “High levels of chromatin-bound acetylated FOXP3”.

Values taken from patent US8846308B2, “Method for identifying immune response modulators” (The Trustees of the University of Pennsylvania, priority 2007, dated 2014).
